Where two headings read alike, the source gives them in different places. Positions of bridges follow the written chain, without caps; N, C: chain ends. Residues, ends and D or L forms follow the SMILES beside them.
What was measured:
[1] = system: classical complement pathway; test: In vitro haemolysis assay (inhibition of classical complement pathway); type: cell-based, human
How it was run: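 Serially diluted compound (9 points) was preincubated 15 min at room temperature with diluted human serum, titrated per batch to give 70-90% maximal haemolysis, in Tris/casein buffer pH 7.4 with Mg2+/Ca2+. Antibody-sensitized sheep erythrocytes were then added for 30 min at 37° C, and the reaction was stopped with EDTA. Haemolysis was read at A405, with IC50 from 4PL fit.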

[2] = Solubility test at 10 mg/mL (visual inspection and light scattering); type: physicochemical; conditions: for Solubility, Condition 1 Acetate pH 4: 10 mg/mL compound in 100 mM acetate pH 4; for Solubility, Condition 2 Acetate pH 5: 10 mg/mL compound in 100 mM acetate pH 5; for Solubility, Condition 3 Phosphate pH 6: 10 mg/mL compound in 100 mM phosphate pH 6; for Solubility, Condition 4 Phosphate pH 7: 10 mg/mL compound in 100 mM phosphate pH 7; for Solubility, Condition 5 Phosphate pH 7.5: 10 mg/mL compound in 100 mM phosphate pH 7.5
Description: The solubility of compounds was assessed by measuring light scattering over a pH interval from pH 4 to pH 7.5.
Compounds were dissolved in a stock solution of 20 mg/mL in H2O at pH 2.5 or pH 10.
These stock solutions were diluted 1:1 with 200 mM buffered solution to reach a final solution of 10 mg/mL compound in 100 mM buffer. The 5 investigated conditions were (1) acetate pH 4.0, (2) acetate pH 5.0, (3) phosphate pH 6.0, (4) phosphate pH 7 and (5) phosphate pH 7.5.
Visual inspection included manually checking the 96 well plate for wells that are clear or non-clear. In addition to this a picture of the 96 well plate is taken.
Absorbance was measured at four wavelengths: 280 nm, 325 nm, 340 nm and 360 nm in an UV transparent 96 well microplate in a SpectraMax 190 microplate reader (Molecular Devices).
The criteria for this was a combination of visual inspection and light scattering not exceeding 0.1 AU, where values below 0.1 AU are good in visually clear samples. […]

[3] = Table 3, human serum, sensitized sheep red blood cells, read-out: IC50[nM], in vitro analysis of inhibition of hemolysis

SMILES	IC50 ([1]; Table 2, human serum, sensitized sheep red blood cells, read-out: CP hemolysis IC50) [nM]	IC50 [1, 3] [nM]	Solubility, Condition 1 Acetate pH 4 [2]	Solubility, Condition 2 Acetate pH 5 [2]	Solubility, Condition 3 Phosphate pH 6 [2]	Solubility, Condition 4 Phosphate pH 7 [2]	Solubility, Condition 5 Phosphate pH 7.5 [2]	IC50 ([1]; Table 4, valine 3 versus isoleucine 3 pairs, read-out: CP hemolysis IC50) [nM]
CC[C@H](C)[C@H](NC(C)=O)C(=O)N[C@H]1CSSC[C@@H](C(=O)N[C@H](C(N)=O)[C@@H](C)O)NC(=O)[C@H](CCCNC(=N)N)NC(=O)[C@H](Cc2c[nH]cn2)NC(=O)[C@H](C)NC(=O)CNC(=O)[C@H](Cc2c[nH]c3ccccc23)NC(=O)[C@H](CC(=O)O)NC(=O)[C@H](CCC(N)=O)NC(=O)[C@H](Cc2c[nH]c3ccccc23)NC(=O)[C@H]([C@@H](C)CC)NC1=O [Compound 1] (Ac-ICIWQDWGAHRCT-NH2; disulfide 2-12)	150	< 250	+ (denotes solubility at the given condition, as determined by UV absorbance being less than 0.1 AU at 340 nm and the sample being clear when manually inspected.)	− (denotes lack of solubility at the given condition, as UV absorbance at 340 nm exceeds 0.1 AU and/or it is visibly turbid or contains particles.)	− (denotes lack of solubility at the given condition, as UV absorbance at 340 nm exceeds 0.1 AU and/or it is visibly turbid or contains particles.)	− (denotes lack of solubility at the given condition, as UV absorbance at 340 nm exceeds 0.1 AU and/or it is visibly turbid or contains particles.)	− (denotes lack of solubility at the given condition, as UV absorbance at 340 nm exceeds 0.1 AU and/or it is visibly turbid or contains particles.)	
CC[C@H](C)[C@H](NC(=O)[C@H](C)NC(=O)[C@H](CO)NC(=O)[C@H](CO)NC(=O)[C@H](CCC(=O)O)NC(C)=O)C(=O)N[C@H]1CSSC[C@@H](C(=O)N[C@H](C(N)=O)[C@@H](C)O)NC(=O)[C@H](CCCNC(=N)N)NC(=O)[C@H](Cc2c[nH]cn2)NC(=O)[C@H](CCC(=O)O)NC(=O)CNC(=O)[C@H](Cc2c[nH]c3ccccc23)NC(=O)[C@H](CC(=O)O)NC(=O)[C@H](CCC(N)=O)NC(=O)[C@H](Cc2c[nH]c3ccccc23)NC(=O)[C@H]([C@@H](C)CC)NC1=O [Compound 3] (Ac-ESSAICIWQDWGEHRCT-NH2; disulfide 6-16)		< 100	+ (denotes solubility at the given condition, as determined by UV absorbance being less than 0.1 AU at 340 nm and the sample being clear when manually inspected.)	− (denotes lack of solubility at the given condition, as UV absorbance at 340 nm exceeds 0.1 AU and/or it is visibly turbid or contains particles.)	− (denotes lack of solubility at the given condition, as UV absorbance at 340 nm exceeds 0.1 AU and/or it is visibly turbid or contains particles.)	+ (denotes solubility at the given condition, as determined by UV absorbance being less than 0.1 AU at 340 nm and the sample being clear when manually inspected.)	+ (denotes solubility at the given condition, as determined by UV absorbance being less than 0.1 AU at 340 nm and the sample being clear when manually inspected.)	69
CC[C@H](C)[C@H](NC(=O)[C@H](C)NC(=O)[C@H](CO)NC(=O)[C@H](CO)NC(=O)[C@H](CCC(=O)O)NC(C)=O)C(=O)N[C@H]1CSSC[C@@H](C(=O)N[C@H](C(=O)NCC(=O)N[C@@H](C)C(=O)N[C@@H](CCC(=O)O)C(=O)N[C@@H](CO)C(N)=O)[C@@H](C)O)NC(=O)[C@H](CCCNC(=N)N)NC(=O)[C@H](Cc2c[nH]cn2)NC(=O)[C@H](CCC(=O)O)NC(=O)CNC(=O)[C@H](Cc2c[nH]c3ccccc23)NC(=O)[C@H](CC(=O)O)NC(=O)[C@H](CCC(N)=O)NC(=O)[C@H](Cc2c[nH]c3ccccc23)NC(=O)[C@H]([C@@H](C)CC)NC1=O [Compound 14] (Ac-ESSAICIWQDWGEHRCTGAES-NH2; disulfide 6-16)		< 100	+ (denotes solubility at the given condition, as determined by UV absorbance being less than 0.1 AU at 340 nm and the sample being clear when manually inspected.)	− (denotes lack of solubility at the given condition, as UV absorbance at 340 nm exceeds 0.1 AU and/or it is visibly turbid or contains particles.)	− (denotes lack of solubility at the given condition, as UV absorbance at 340 nm exceeds 0.1 AU and/or it is visibly turbid or contains particles.)	+ (denotes solubility at the given condition, as determined by UV absorbance being less than 0.1 AU at 340 nm and the sample being clear when manually inspected.)	+ (denotes solubility at the given condition, as determined by UV absorbance being less than 0.1 AU at 340 nm and the sample being clear when manually inspected.)	
CC[C@H](C)[C@H](NC(C)=O)C(=O)N[C@H]1CSSC[C@@H](C(=O)N[C@@H](CCC(=O)O)C(N)=O)NC(=O)[C@H](CCCNC(=N)N)NC(=O)[C@H](Cc2c[nH]cn2)NC(=O)[C@H](CCC(=O)O)NC(=O)CNC(=O)[C@H](Cc2c[nH]c3ccccc23)NC(=O)[C@H](CC(=O)O)NC(=O)[C@H](CCC(N)=O)NC(=O)[C@H](Cc2c[nH]c3ccccc23)NC(=O)[C@H]([C@@H](C)CC)NC1=O [Compound 22] (Ac-ICIWQDWGEHRCE-NH2; disulfide 2-12)		< 100	+ (denotes solubility at the given condition, as determined by UV absorbance being less than 0.1 AU at 340 nm and the sample being clear when manually inspected.)	− (denotes lack of solubility at the given condition, as UV absorbance at 340 nm exceeds 0.1 AU and/or it is visibly turbid or contains particles.)	− (denotes lack of solubility at the given condition, as UV absorbance at 340 nm exceeds 0.1 AU and/or it is visibly turbid or contains particles.)	+ (denotes solubility at the given condition, as determined by UV absorbance being less than 0.1 AU at 340 nm and the sample being clear when manually inspected.)	+ (denotes solubility at the given condition, as determined by UV absorbance being less than 0.1 AU at 340 nm and the sample being clear when manually inspected.)	
CC[C@H](C)[C@H](NC(C)=O)C(=O)N[C@H]1CSSC[C@@H](C(=O)N[C@H](C(=O)N[C@@H](CCC(=O)O)C(=O)N[C@@H](C)C(N)=O)[C@@H](C)O)NC(=O)[C@H](CCCNC(=N)N)NC(=O)[C@H](Cc2c[nH]cn2)NC(=O)[C@H](CCC(=O)O)NC(=O)CNC(=O)[C@H](Cc2c[nH]c3ccccc23)NC(=O)[C@H](CC(=O)O)NC(=O)[C@H](CCC(N)=O)NC(=O)[C@H](Cc2c[nH]c3ccccc23)NC(=O)[C@H]([C@@H](C)CC)NC1=O [Compound 25] (Ac-ICIWQDWGEHRCTEA-NH2; disulfide 2-12)		< 100	+ (denotes solubility at the given condition, as determined by UV absorbance being less than 0.1 AU at 340 nm and the sample being clear when manually inspected.)	− (denotes lack of solubility at the given condition, as UV absorbance at 340 nm exceeds 0.1 AU and/or it is visibly turbid or contains particles.)	− (denotes lack of solubility at the given condition, as UV absorbance at 340 nm exceeds 0.1 AU and/or it is visibly turbid or contains particles.)	+ (denotes solubility at the given condition, as determined by UV absorbance being less than 0.1 AU at 340 nm and the sample being clear when manually inspected.)	+ (denotes solubility at the given condition, as determined by UV absorbance being less than 0.1 AU at 340 nm and the sample being clear when manually inspected.)	
